Reference: PubChem BioAssay AID330 (DTP/NCI, 2004)
Inconclusive results and toxic doses are left out. The calls were made as follows: active = survival T/C of 150% or more; inactive = T/C below 125% in these data.

Tested on: P388 leukemia ip, CD2F1 mice, survival T/C
Assay: NCI In Vivo Anticancer Drug Screen. Data for tumor model P388 Leukemia (intraperitoneal) in CD2F1 (CDF1) mice
Conditions: endpoint: median survival time, higher = longer survival
Outline: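 Mice carrying the transplanted tumor received test compound or vehicle. Survival was recorded in each group, and the value is the treated-group measurement divided by that of the vehicle-treated control group.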

[1] = dose: 6.25 mg/kg/injection, schedule: Q01DX009 (ip), vehicle: saline
[2] = dose: 12.5 mg/kg/injection, schedule: Q01DX009 (ip), vehicle: saline
[3] = dose: 25.0 mg/kg/injection, schedule: Q01DX009 (ip), vehicle: saline
[4] = dose: 50.0 mg/kg/injection, schedule: Q01DX005 (ip), vehicle: saline with Tween-80
[5] = dose: 100.0 mg/kg/injection, schedule: Q01DX005 (ip), vehicle: saline with Tween-80
[6] = dose: 200.0 mg/kg/injection, schedule: Q01DX005 (ip), vehicle: saline with Tween-80
[7] = dose: 100.0 mg/kg/injection, schedule: Q01DX009 (ip), vehicle: saline with Tween-80
[8] = dose: 200.0 mg/kg/injection, schedule: Q01DX009 (ip), vehicle: saline with Tween-80
[9] = dose: 60.0 mg/kg/injection, schedule: Q01DX005 (ip), vehicle: saline with Tween-80
[10] = dose: 120.0 mg/kg/injection, schedule: Q01DX005 (ip), vehicle: saline with Tween-80
[11] = dose: 240.0 mg/kg/injection, schedule: Q01DX005 (ip), vehicle: saline with Tween-80

Measured: T/C

CC1=C(CC/C(C)=C/CCC2=CCC(C3=CC(=O)OC3O)OC2O)C(C)(C)CCC1 (stereo not drawn)
inactive: dose: 1.0 mg/kg/injection, schedule: Q01DX009 (ip), vehicle: Klucel (hydroxypropylcellulose) (HPC) 116 % of control | dose: 2.0 mg/kg/injection, schedule: Q01DX009 (ip), vehicle: Klucel (hydroxypropylcellulose) (HPC) 111 % of control | dose: 4.0 mg/kg/injection, schedule: Q01DX009 (ip), vehicle: Klucel (hydroxypropylcellulose) (HPC) 117 % of control | dose: 8.0 mg/kg/injection, schedule: Q01DX009 (ip), vehicle: Klucel (hydroxypropylcellulose) (HPC) 100 % of control | dose: 16.0 mg/kg/injection, schedule: Q01DX009 (ip), vehicle: Klucel (hydroxypropylcellulose) (HPC) 117 % of control

COC(=O)C(CS)NC(=O)C(Cc1c[nH]c2ccccc12)NC(=O)OC(C)(C)C (stereo not drawn)
inactive: dose: 12.5 mg/kg/injection, schedule: Q01DX009 (ip), vehicle: other 88 % of control | dose: 25.0 mg/kg/injection, schedule: Q01DX009 (ip), vehicle: other 103 % of control | dose: 50.0 mg/kg/injection, schedule: Q01DX009 (ip), vehicle: other 100 % of control | dose: 100.0 mg/kg/injection, schedule: Q01DX009 (ip), vehicle: other 99 % of control | dose: 200.0 mg/kg/injection, schedule: Q01DX009 (ip), vehicle: other 103 % of control

O=C(CC(O)c1ccccc1)Sc1ccccc1 (stereo not drawn)
inactive: dose: 25.0 mg/kg/injection, schedule: Q04DX003 (ip), vehicle: Klucel (hydroxypropylcellulose) (HPC) 100 % of control | dose: 50.0 mg/kg/injection, schedule: Q04DX003 (ip), vehicle: Klucel (hydroxypropylcellulose) (HPC) 100 % of control | dose: 100.0 mg/kg/injection, schedule: Q04DX003 (ip), vehicle: Klucel (hydroxypropylcellulose) (HPC) 95 % of control

CCC[CH2][Sn]([CH2]CCC)([CH2]CCC)[CH2]CCNCCCN(C)C
inactive: [1] 96 % of control | [2] 97 % of control | [3] 96 % of control | dose: 50.0 mg/kg/injection, schedule: Q01DX009 (ip), vehicle: saline 90 % of control | dose: 100.0 mg/kg/injection, schedule: Q01DX009 (ip), vehicle: saline 86 % of control

OC1c2ccccc2-c2ccc(N(Cc3ccc(Br)cc3)Cc3ccc(Br)cc3)cc21 (stereo not drawn)
inactive: [4] 100 % of control | [5] 91 % of control | [6] 92 % of control

CC1=NN(C(=O)c2ccncc2)C(=O)C1N=Nc1ccccc1C (stereo not drawn)
inactive: dose: 50.0 mg/kg/injection, schedule: Q01DX009 (ip), vehicle: saline with Tween-80 95 % of control | [7] 94 % of control | [8] 94 % of control

CNC(=O)OCc1c(COC(=O)NC)c2n(c1C)-c1ccccc1CCC2
active: dose: 2.5 mg/kg/injection, schedule: Q01DX005 (ip), vehicle: Klucel (hydroxypropylcellulose) (HPC) 154 % of control | dose: 10.0 mg/kg/injection, schedule: Q01DX005 (ip), vehicle: Klucel (hydroxypropylcellulose) (HPC) 152 % of control

O=C(O)CCO/N=C1/Oc2ccc(Cl)cc2C1=O
inactive: [9] 103 % of control | [10] 102 % of control | [11] 101 % of control

CCNC(=O)NS(=O)(=O)c1ccc(Sc2ccc(Cl)cc2)nc1
inactive: [9] 102 % of control | [10] 105 % of control | [11] 95 % of control

O=c1c2c([nH]c3c4c(ccc13)NCCC4)CCC2
inactive: dose: 50.0 mg/kg/injection, schedule: Q04DX002 (ip), vehicle: saline with Tween-80 95 % of control | dose: 100.0 mg/kg/injection, schedule: Q04DX002 (ip), vehicle: saline with Tween-80 94 % of control | dose: 200.0 mg/kg/injection, schedule: Q04DX002 (ip), vehicle: saline with Tween-80 92 % of control

CN(C)C(=O)Cn1cc([N+](=O)[O-])sc1=NC(=O)c1ccncc1
inactive: dose: 100.0 mg/kg/injection, schedule: Q01DX001 (ip), vehicle: saline 93 % of control | dose: 200.0 mg/kg/injection, schedule: Q01DX001 (ip), vehicle: saline 109 % of control | dose: 400.0 mg/kg/injection, schedule: Q01DX001 (ip), vehicle: saline 105 % of control

Brc1ccc2c(NCCCCCCCCNc3c4ccccc4nc4cc(Br)ccc34)c3ccccc3nc2c1
inactive: dose: 0.32 mg/kg/injection, schedule: Q01DX009 (ip), vehicle: other 100 % of control | dose: 0.63 mg/kg/injection, schedule: Q01DX009 (ip), vehicle: other 99 % of control | dose: 1.25 mg/kg/injection, schedule: Q01DX009 (ip), vehicle: other 107 % of control | dose: 2.5 mg/kg/injection, schedule: Q01DX009 (ip), vehicle: other 109 % of control | dose: 5.0 mg/kg/injection, schedule: Q01DX009 (ip), vehicle: other 96 % of control | dose: 10.0 mg/kg/injection, schedule: Q01DX009 (ip), vehicle: other 101 % of control

Cc1ccc(NC(=S)SCc2ccc([N+](=O)[O-])cc2)cc1C
inactive: dose: 50.0 mg/kg/injection, schedule: Q01DX009 (ip), vehicle: suspension in saline 89 % of control | dose: 100.0 mg/kg/injection, schedule: Q01DX009 (ip), vehicle: suspension in saline 107 % of control | dose: 200.0 mg/kg/injection, schedule: Q01DX009 (ip), vehicle: suspension in saline 101 % of control

O=C(CBr)Nc1c(Cl)cc(Br)cc1Br
inactive: [1] 113 % of control | [2] 95 % of control | [3] 98 % of control | [7] 104 % of control | [8] 113 % of control

CN(C)CCCCNc1c2c(nc3c(Cl)cccc13)CCC2
inactive: [4] 99 % of control | [5] 105 % of control | [6] 99 % of control

CN1CCOc2c1cnn(CCO)c2=O
inactive: [9] 108 % of control | [10] 108 % of control | [11] 102 % of control

O=NN(CCCl)C(=O)NC1CCC(=O)NC1=O (stereo not drawn)
active: dose: 1.0 mg/kg/injection, schedule: Q04DX003 (ip), vehicle: saline 154 % of control | dose: 2.0 mg/kg/injection, schedule: Q01DX005 (ip), vehicle: saline + alcohol 214 % of control | dose: 2.0 mg/kg/injection, schedule: Q04DX003 (ip), vehicle: saline 195 % of control | dose: 4.0 mg/kg/injection, schedule: Q01DX001 (ip), vehicle: saline + alcohol 172 % of control | dose: 4.0 mg/kg/injection, schedule: Q01DX005 (ip), vehicle: saline + alcohol 315 % of control | dose: 4.0 mg/kg/injection, schedule: Q01DX005 (iv), vehicle: saline + alcohol 205 % of control | dose: 4.0 mg/kg/injection, schedule: Q01DX005 (oral), vehicle: saline + alcohol 207 % of control | dose: 4.0 mg/kg/injection, schedule: Q04DX003 (ip), vehicle: saline with Tween-80 272 % of control | dose: 4.0 mg/kg/injection, schedule: Q04DX003 (ip), vehicle: saline 263 % of control | dose: 6.0 mg/kg/injection, schedule: Q04DX003 (ip), vehicle: saline with Tween-80 272 % of control | dose: 8.0 mg/kg/injection, schedule: Q01DX001 (ip), vehicle: saline + alcohol 232 % of control | dose: 8.0 mg/kg/injection, schedule: Q01DX001 (iv), vehicle: saline + alcohol 158 % of control | dose: 8.0 mg/kg/injection, schedule: Q01DX005 (iv), vehicle: saline + alcohol 252 % of control | dose: 8.0 mg/kg/injection, schedule: Q01DX005 (oral), vehicle: saline + alcohol 315 % of control | dose: 9.0 mg/kg/injection, schedule: Q04DX003 (ip), vehicle: saline with Tween-80 272 % of control | dose: 13.0 mg/kg/injection, schedule: Q01DX001 (ip), vehicle: saline with Tween-80 517 % of control | dose: 16.0 mg/kg/injection, schedule: Q01DX001 (ip), vehicle: saline + alcohol 312 % of control | dose: 16.0 mg/kg/injection, schedule: Q01DX001 (iv), vehicle: saline + alcohol 203 % of control | dose: 16.0 mg/kg/injection, schedule: Q01DX001 (oral), vehicle: saline + alcohol 187 % of control
inactive: dose: 0.5 mg/kg/injection, schedule: Q04DX003 (ip), vehicle: saline 122 % of control | dose: 2.0 mg/kg/injection, schedule: Q01DX005 (iv), vehicle: saline + alcohol 117 % of control | dose: 3.13 mg/kg/injection, schedule: Q01DX009 (ip), vehicle: saline with Tween-80 118 % of control | dose: 6.25 mg/kg/injection, schedule: Q01DX009 (ip), vehicle: saline with Tween-80 109 % of control | dose: 12.5 mg/kg/injection, schedule: Q04DX003 (ip), vehicle: saline with Tween-80 87 % of control | dose: 16.0 mg/kg/injection, schedule: Q01DX005 (oral), vehicle: saline + alcohol 119 % of control
